From the supplement of paper PMC11061612

Tests used:
[1] = tested on: RPMI-6666 (Non-Cancerous); assay: combination Emax (second highest fraction inhibited in the dose matrix, 72 h); higher = more inhibition; extreme values may be limits of the assay
How it was run: (§1)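 After 24 hours at 37°C and 5% CO2 in 1536-well plates, cells in DMEM/F12 or RPMI plus 10% FBS received two-drug dose matrices for 72 hours. Viability came from CellTiter-Glo 2.0 luminescence and was scaled as inhibition, anchored at 0 by vehicle wells and at 1 by blank wells. Combination Emax is taken as the second-highest inhibition in the matrix, and Bliss excess as the observed combination effect less EA + EB − EA·EB, with EA and EB the single-agent effects.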

[2] = tested on: NCI-H747 (Colorectal Carcinoma); assay: as above
How it was run: as §1

NCI-H28 (Mesothelioma) = assay: as above
How it was run: as §1

[3] = tested on: HCC-15 (Squamous Cell Lung Carcinoma); assay: as above
How it was run: as §1

[4] = tested on: TE-4 (Esophageal Squamous Cell Carcinoma); assay: as above
How it was run: as §1

[5] = tested on: RKO (Colorectal Carcinoma); assay: as above
How it was run: as §1

[6] = tested on: UMC-11 (Other Solid Carcinomas); assay: as above
How it was run: as §1

[7] = tested on: NCI-H69 (Small Cell Lung Carcinoma); assay: as above
How it was run: as §1

[8] = tested on: SK-OV-3 (Ovarian Carcinoma); assay: as above
How it was run: as §1

[9] = tested on: 8305C (Thyroid Gland Carcinoma); assay: as above
How it was run: as §1

[10] = tested on: SUP-T1 (T-Lymphoblastic Leukemia); assay: as above
How it was run: as §1

[11] = tested on: OVCAR-8 (Ovarian Carcinoma); assay: as above
How it was run: as §1

[12] = tested on: KYSE-410 (Esophageal Squamous Cell Carcinoma); assay: as above
How it was run: as §1

NB14 (Neuroblastoma) = assay: as above
How it was run: as §1

[13] = tested on: HDLM-2 (Hodgkin's Lymphoma); assay: as above
How it was run: as §1

[14] = tested on: RT-112 (Bladder Carcinoma); assay: as above
How it was run: as §1

[15] = tested on: CAPAN-1 (Pancreatic Carcinoma); assay: Bliss excess, mean over the matrix (fraction); higher = more synergy
How it was run: as §1

[16] = tested on: LB771-HNC (Head and Neck Carcinoma); assay: as above
How it was run: as §1

[17] = tested on: CAL-54 (Kidney Carcinoma); assay: as above
How it was run: as §1

[18] = tested on: HARA (Squamous Cell Lung Carcinoma); assay: as above
How it was run: as §1
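For Bliss excess, mean over the matrix in this document: after 72 h of two-drug dosing.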

Row | Compound | combination Emax [1] | combination Emax [2] | combination Emax (NCI-H28 (Mesothelioma)) | combination Emax [3] | combination Emax [4] | combination Emax [5] | combination Emax [6] | combination Emax [7] | combination Emax [8] | combination Emax [9] | combination Emax [10] | combination Emax [11] | combination Emax [12] | combination Emax (NB14 (Neuroblastoma)) | combination Emax [13] | combination Emax [14] | Bliss excess [15] | Bliss excess [16] | Bliss excess [17] | Bliss excess [18]
1 | Cc1cc2ncnn2cc1Nc1ncc2c(n1)n(C1CCOCC1)c(=O)n2C [AZD7648] + CCN(CCO)CCCOc1ccc2c(Nc3cc(CC(=O)Nc4cccc(F)c4)[nH]n3)ncnc2c1 [AZD2811] (first compound max 10 µM, 7x7, partner max 1 µM) | 0.584 | 0.306 | 0.345 | 0.703 | 0.137 | 0.409 | 0.701 | 0.743 | 0.367 | 0.451 | 0.641 | 0.311 | 0.187 | 0.837 | 0.345 | 0.49 | -0.0304 | 0 | 0.0156 | 0.017
2 | Cc1cc2ncnn2cc1Nc1ncc2c(n1)n(C1CCOCC1)c(=O)n2C [AZD7648] + CN(C)CCCOc1ccc(-c2ccc3ncc4c(c3c2)n(C2CCOCC2)c(=O)n4C)cn1 [AZD0156] (first compound max 10 µM, 7x7, partner max 1 µM) | 0.359 | 0.387 | 0.307 | 0.227 | 0.147 | 0.391 | 0.21 | 0.355 | 0.403 | 0.414 | 0.482 | 0.213 | 0.178 | 0.407 | 0.368 | 0.317 | -0.0201 | 0.0059 | -0.0384 | 0.0352
3 | Cc1cc2ncnn2cc1Nc1ncc2c(n1)n(C1CCOCC1)c(=O)n2C [AZD7648] + C[C@@H]1COCCN1C2=NC(=NC(=C2)C3(CC3)[S@](=N)(=O)C)C4=C5C=CNC5=NC=C4 [AZD6738] (first compound max 10 µM, 7x7, partner max 10 µM) | 0.797 | 0.408 | 0.538 | 0.181 | 0.531 | 0.865 | 0.537 | 0.469 | 0.638 | 0.609 | 0.744 | 0.71 | 0.363 | 0.99 | 0.373 | 0.93 | 0.0322 | 0.0039 | -0.0183 | -0.0073
4 | Cc1cc2ncnn2cc1Nc1ncc2c(n1)n(C1CCOCC1)c(=O)n2C [AZD7648] + O=C(c1cc(Cc2n[nH]c(=O)c3ccccc23)ccc1F)N1CCN(C(=O)C2CC2)CC1 [Olaparib] (first compound max 10 µM, 7x7, partner max 10 µM) | 0.584 | 0.241 | 0.131 | 0.129 | 0.167 | 0.242 | 0.244 | 0.337 | 0.173 | 0.31 | 0.465 | 0.344 | 0.141 | 0.508 | 0.155 | 0.143 | -0.1 | -0.0542 | -0.0408 | -0.0114
5 | NC1(C(=O)N[C@@H](CCO)c2ccc(Cl)cc2)CCN(c2ncnc3[nH]ccc23)CC1 [Capivasertib] + CC(=O)c1c(C)c2cnc(Nc3ccc(N4CCNCC4)cn3)nc2n(C2CCCC2)c1=O [Palbociclib] (first compound max 10 µM, 7x7, partner max 10 µM) | 0.675 | 0.795 | 0.425 | 0.633 | 0.826 | 0.601 | 0.553 | 0.764 | 0.417 | 0.469 | 0.677 | 0.221 | 0.549 | 0.598 | 0.29 | 0.415 | -0.0163 | -0.0781 | -0.0279 | 0.0388
6 | NC1(C(=O)N[C@@H](CCO)c2ccc(Cl)cc2)CCN(c2ncnc3[nH]ccc23)CC1 [Capivasertib] + CC(C)n1c(=O)n(C)c2cnc3cc(F)c(-c4ccc(OCCCN5CCCCC5)nc4)cc3c21 [AZD1390] (first compound max 10 µM, 7x7, partner max 0.3 µM) | 0.715 | 0.523 | 0.281 | 0.26 | 0.616 | 0.524 | 0.201 | 0.514 | 0.383 | 0.436 | 0.718 | 0.255 | 0.327 | 0.381 | 0.298 | 0.255 | -0.0812 | -0.0687 | -0.0687 | -0.0216
7 | NC1(C(=O)N[C@@H](CCO)c2ccc(Cl)cc2)CCN(c2ncnc3[nH]ccc23)CC1 [Capivasertib] + CCN(CCO)CCCOc1ccc2c(Nc3cc(CC(=O)Nc4cccc(F)c4)[nH]n3)ncnc2c1 [AZD2811] (first compound max 10 µM, 7x7, partner max 1 µM) | 0.675 | 0.631 | 0.416 | 0.773 | 0.748 | 0.615 | 0.879 | 0.877 | 0.394 | 0.452 | 0.83 | 0.393 | 0.303 | 0.938 | 0.395 | 0.375 | -0.0486 | -0.0549 | -0.0357 | 0.0137
8 | NC1(C(=O)N[C@@H](CCO)c2ccc(Cl)cc2)CCN(c2ncnc3[nH]ccc23)CC1 [Capivasertib] + COc1nnc2ccc(N3CCC(c4ccc(OCCN5CCN(C)C(=O)[C@H]5C)cc4)CC3)nn12 [AZD5153] (first compound max 10 µM, 7x7, partner max 1 µM) | 0.815 | 0.855 | 0.453 | 0.626 | 0.851 | 0.842 | 0.768 | 0.829 | 0.535 | 0.495 | 0.789 | 0.732 | 0.56 | 0.884 | 0.389 | 0.383 | -0.0045 | 0.0208 | -0.0039 | -0.0019
9 | NC1(C(=O)N[C@@H](CCO)c2ccc(Cl)cc2)CCN(c2ncnc3[nH]ccc23)CC1 [Capivasertib] + C[C@@H]1COCCN1C2=NC(=NC(=C2)C3(CC3)[S@](=N)(=O)C)C4=C5C=CNC5=NC=C4 [AZD6738] (first compound max 10 µM, 7x7, partner max 10 µM) | 0.775 | 0.626 | 0.512 | 0.367 | 0.818 | 0.938 | 0.67 | 0.671 | 0.493 | 0.683 | 0.866 | 0.776 | 0.397 | 0.964 | 0.518 | 0.62 | -0.0423 | -0.0503 | -0.0374 | -0.0719
10 | NC1(C(=O)N[C@@H](CCO)c2ccc(Cl)cc2)CCN(c2ncnc3[nH]ccc23)CC1 [Capivasertib] + Cn1cnc2c(F)c(Nc3ccc(Br)cc3Cl)c(C(=O)NOCCO)cc21 [Selumetinib] (first compound max 10 µM, 7x7, partner max 10 µM) | 0.737 | 0.909 | 0.404 | 0.693 | 0.961 | 0.876 | 0.279 | 0.466 | 0.473 | 0.527 | 0.682 | 0.303 | 0.532 | 0.313 | 0.205 | 0.475 | -0.0081 | -0.0595 | 0.0079 | -0.0186
11 | Cc1nc(Nc2ncc(C(=O)Nc3c(C)cccc3Cl)s2)cc(N2CCN(CCO)CC2)n1 [Dasatinib] + CC(=O)Nc1cccc(-n2c(=O)n(C3CC3)c(=O)c3c(Nc4ccc(I)cc4F)n(C)c(=O)c(C)c32)c1 [Trametinib] (first compound max 2 µM, 7x7, partner max 1 µM) | 0.686 | 0.909 | 0.721 | 0.853 | 0.857 | 0.885 | 0.136 | 0.124 | 0.392 | 0.763 | 0.577 | 0.671 | 0.546 | 0.465 | 0.12 | 0.584 | 0.0044 | -0.0363 | -0.0031 | -0.0523
12 | COc1cccc2c1C(=O)c1c(O)c3c(c(O)c1C2=O)C[C@@](O)(C(=O)CO)C[C@@H]3O[C@H]1C[C@H](N)[C@H](O)[C@H](C)O1 [Doxorubicin] + Cc1cc2ncnn2cc1Nc1ncc2c(n1)n(C1CCOCC1)c(=O)n2C [AZD7648] (first compound max 1 µM, 7x7, partner max 10 µM) | 0.971 | 0.743 | 0.605 | 0.284 | 0.443 | 0.91 | 0.613 | 0.747 | 0.638 | 0.876 | 0.784 | 0.923 | 0.117 | 0.887 | 0.545 | 0.9 | 0.0038 | -0.035 | 0.0594 | 0.0915
13 | COc1cc2ncnc(Nc3ccc(F)c(Cl)c3)c2cc1OCCCN1CCOCC1 [Gefitinib] + CC(C)n1c(=O)n(C)c2cnc3cc(F)c(-c4ccc(OCCCN5CCCCC5)nc4)cc3c21 [AZD1390] (first compound max 10 µM, 7x7, partner max 0.3 µM) | 0.615 | 0.369 | 0.346 | 0.0725 | 0.981 | 0.0688 | 0.0797 | 0.286 | 0.285 | 0.298 | 0.382 | 0.223 | 0.362 | 0.128 | 0.192 | 0.176 | -0.0286 | -0.0648 | -0.0718 | -0.0343
